Here are results for five compounds from article PMC2805240 (Journal of chemical information and modeling, 2009).

The target of series [1] is anthrax toxin lethal factor (Bacillus anthracis, UniProt P15917). Put plainly: biochemical.
The next series has as its system LF. The settings on record: read-out: IC50 in a LF enzyme assay; cited from earlier work.
The subject of a further series is macrophage. The settings on record: cited from earlier work.

anthrax toxin lethal factor, sequence (P15917 34-809 limits assumed): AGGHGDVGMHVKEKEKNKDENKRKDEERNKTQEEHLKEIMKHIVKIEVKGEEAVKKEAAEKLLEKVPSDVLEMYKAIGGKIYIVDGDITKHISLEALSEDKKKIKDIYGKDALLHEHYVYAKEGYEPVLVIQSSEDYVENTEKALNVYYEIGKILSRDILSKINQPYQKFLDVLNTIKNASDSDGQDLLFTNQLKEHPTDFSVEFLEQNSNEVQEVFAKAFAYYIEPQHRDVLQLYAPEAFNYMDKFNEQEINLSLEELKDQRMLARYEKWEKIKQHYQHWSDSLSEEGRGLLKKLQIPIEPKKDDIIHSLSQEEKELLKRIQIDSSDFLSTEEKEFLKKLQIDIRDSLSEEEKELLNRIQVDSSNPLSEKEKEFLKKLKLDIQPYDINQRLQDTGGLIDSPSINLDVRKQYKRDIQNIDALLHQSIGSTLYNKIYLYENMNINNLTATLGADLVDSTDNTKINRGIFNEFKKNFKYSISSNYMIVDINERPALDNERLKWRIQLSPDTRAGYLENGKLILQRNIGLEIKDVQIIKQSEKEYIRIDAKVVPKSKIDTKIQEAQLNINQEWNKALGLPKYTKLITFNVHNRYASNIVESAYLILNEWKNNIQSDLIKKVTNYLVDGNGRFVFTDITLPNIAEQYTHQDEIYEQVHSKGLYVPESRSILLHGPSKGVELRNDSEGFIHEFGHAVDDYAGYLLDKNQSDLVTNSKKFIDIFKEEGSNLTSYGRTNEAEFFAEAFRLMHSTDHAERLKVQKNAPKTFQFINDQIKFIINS

Usually IC50 stands for the concentration at which inhibition is half-maximal. Consider `CNC(=O)[C@H](Cc1c[nH]c2ccccc12)NC(=O)[C@@H](CC(=O)NO)CC(C)C` [GM6001/M364205, ilomastat], for which half-maximal inhibition in series [1] (IC50) was put at 10.2 ± 0.72 µM. As to `Cc1cc(S(=O)(=O)N[C@@H](C(=O)NO)C2CCOCC2)ccc1F` [compound 40, (2R)-2-[(4-fluoro-3-methylphenyl)sulfonylamino]-N-hydroxy-2-(tetrahydro-2H-pyran-4-yl)acetamide], the IC50 with LF is 0.054 µM; with macrophage it was 0.21 µM. Turning to `CCN(Cc1ccccc1)Cc1cc(Cl)ccc1O` [compound 5421384, 2-[(benzyl(ethyl)amino)methyl]-4-chlorophenol], the IC50 in series [1] came out at 67.5 ± 2 µM. On the same count and under the same terms, to `CCN(Cc1ccccc1)Cc1cc(I)cc(I)c1O` [compound 5426202, 2-[(benzyl(ethyl)amino)methyl]-4,6-diiodophenol] belongs 49.5 ± 1.5 µM; to `CCN(Cc1ccccc1)Cc1cc(Br)ccc1O` [compound 5428736, 2-[(benzyl(ethyl)amino)methyl]-4-bromophenol], 73.9 ± 4.5 µM.
